Test system: Subjects with Osteoarthritis of the Knee
Experiment: Second Phase 2 study: safety (treatment-emergent adverse events)
Format: in vivo, human
Conditions: Oral Ibuprofen 3 × 400 mg, N = 71
Description: Safety assessments will be performed at each visit and will include assessment of AEs, vital signs (blood pressure, pulse rate, and oral temperature), clinical laboratories, physical examination, skin irritation, and electrocardiograms (ECGs) as indicated in the study flow chart, Table 47.
Safety assessments will include AEs, vital signs (blood pressures, pulse rate, and oral temperature), clinical laboratories, physical examination, skin irritation, and ECGs at various time points during the study as indicated in the study flow chart.
Adverse events of interest include: local skin reactions around the treated knee(s), upper stomach pain, GI bleeding, serious cardiovascular side effects (e.g., thrombotic events, myocardial infarction, or stroke), jaundice, elevated liver function tests, and nausea.
Safety analyses will be conducted on the SAS. Safety parameters will be listed and summarized using standard descriptive statistics, as appropriate. No formal statistical analyses are planned.

CC(C)Cc1ccc(C(C)C(=O)O)cc1 (stereo not shown) [Ibuprofen, 2-(4-isobutylphenyl)propionic acid, reference compound]
Infections and Infestations: number of adverse events: 32
Metabolism and Nutrition Disorders: number of adverse events: 8
Metabolism and Nutrition Disorders: percentage of subjects with adverse events: 11.3%
Metabolism and Nutrition Disorders: subjects with adverse events: 8
Tooth Infection: number of adverse events: 3
Urinary Tract Infection: number of adverse events: 11
Urinary Tract Infection: subjects with adverse events, number (percentage): 10(14.1%)
